Experimental findings from US20050197350A1, “Novel quinoline, tetrahydroquinazoline, and pyrimidine derivatives and methods of treatment related to the use thereof” (TAISHO PHARMACEUTICAL CO., LTD., priority 2003, published 2005) are described below.

The target of this test is MCH receptor (Homo sapiens, UniProt Q99705). Description: High throughput functional screening FLIPR/FDSS6000 (intracellular Ca2+ evoked by MCH). In kind it is cell-based. To be noted: FLIPR/FDSS, antagonist activity vs 50 nM MCH; class by percent of control at 10^−7 M or IC50; table after the classification; read-out: class. A digest of the protocol:
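For antagonist testing, compound-treated cells (30 min, 37 °C) were stimulated with 50 nM MCH and intracellular Ca2+ followed by Fluo4 fluorescence on FLIPR/FDSS6000. Receptor was a constitutively active, non-endogenous MCH receptor; dye loading 4 μM Fluo4-AM, 1 h, 37 °C.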

Counter-ions that a name gives are not always drawn.

`Cc1cc(N[C@H]2CC[C@@H](NC(=O)COc3cccc(Cl)c3)CC2)nc2ccccc12` [Example 3099, 2-(3-Chloro-phenoxy)-N-[cis-4-(4-methyl-quinolin-2-ylamino)-cyclohexyl]-acetamide hydrochloride]: the IC50 was less than 50 nM.

For `Cc1cc(N[C@H]2CC[C@@H](NC(=O)COc3ccc(F)c(Cl)c3)CC2)nc2ccccc12` [Example 3100, 2-(3-Chloro-4-fluoro-phenoxy)-N-[cis-4-(4-methyl-quinolin-2-ylamino)-cyclohexyl]-acetamide hydrochloride], the IC50 is less than 50 nM. With `Cc1cc(N[C@H]2CC[C@@H](NC(=O)COc3ccc(Cl)c(Cl)c3)CC2)nc2ccccc12` [Example 3101, 2-(3,4-Dichloro-phenoxy)-N-[cis-4-(4-methyl-quinolin-2-ylamino)-cyclohexyl]-acetamide hydrochloride] the figure was less than 50 nM; with `Cc1cc(N[C@H]2CC[C@@H](NC(=O)CNc3ccc(Cl)c(Cl)c3)CC2)nc2ccccc12` [Example 3103, 2-(3,4-Dichloro-phenylamino)-N-[cis-4-(4-methyl-quinolin-2-ylamino)-cyclohexyl]-acetamide dihydrochloride], 50 to 200 nM; with `Cc1cc(N[C@H]2CC[C@@H](CNC(=O)c3ccc(F)c(F)c3)CC2)nc2ccccc12` [Example 3104, 3,4-Difluoro-N-[cis-4-(4-methyl-quinolin-2-ylamino)-cyclohexylmethyl]-benzamide hydrochloride], 50 to 200 nM. Consider `Cc1cc(N[C@H]2CC[C@@H](CNC(=O)c3cccnc3Oc3ccccc3)CC2)nc2ccccc12` [Example 3105, N-[cis-4-(4-Methylquinolin-2-ylamino)-cyclohexylmethyl]-2-phenoxy-nicotinamide hydrochloride], for which the IC50 was in the range of 50 to 200 nM. For `Cc1cc(N[C@H]2CC[C@@H](CNC(=O)Nc3cccc(Cl)c3Cl)CC2)nc2ccccc12` [Example 3106, 1-(2,3-Dichloro-phenyl)-3-[cis-4-(4-methyl-quinolin-2-ylamino)-cyclohexylmethyl]-urea hydrochloride] the value was less than 50 nM; for `CN(C)c1nc(N[C@H]2CC[C@@H](NC(=O)c3cccnc3Oc3ccccc3)CC2)nc2c1CCCC2` [Example 3107, N-[cis-4-(4-Dimethylamino-5,6,7,8-tetrahydro-quinazolin-2-ylamino)-cyclohexyl]-2-phenoxy-nicotinamide hydrochloride], less than 50 nM; for `CN(C)c1nc(N[C@H]2CC[C@@H](NC(=O)c3ccc(F)c(Cl)c3)CC2)nc2c1CCCC2` [Example 3108, 3-Chloro-N-[cis-4-(4-dimethylamino-5,6,7,8-tetrahydro-quinazolin-2-ylamino)-cyclohexyl]-4-fluoro-benzamide hydrochloride], less than 50 nM.

Consider `Cc1cc(C(=O)N[C@H]2CC[C@@H](Nc3nc4c(c(N(C)C)n3)CCCC4)CC2)ccc1F` [Example 3109, N-[cis-4-(4-Dimethylamino-5,6,7,8-tetrahydro-quinazolin-2-ylamino)-cyclohexyl]-4-fluoro-3-methyl-benzamide hydrochloride], for which the IC50 is less than 50 nM. For `COc1cc(OC)cc(C(=O)N[C@H]2CC[C@@H](Nc3nc4c(c(N(C)C)n3)CCCC4)CC2)c1` [Example 3110, N-[cis-4-(4-Dimethylamino-5,6,7,8-tetrahydro-quinazolin-2-ylamino)-cyclohexyl]-3,5-dimethoxy-benzamide hydrochloride] the value was less than 50 nM. For `CN(C)c1nc(N[C@H]2CC[C@@H](NC(=O)c3ccc4nonc4c3)CC2)nc2c1CCCC2` [Example 3111, Benzo[2,1,3]oxadiazole-5-carboxylic acid-[cis-4-(4-dimethylamino-5,6,7,8-tetrahydro-quinazolin-2-ylamino)-cyclohexyl]-amide hydrochloride] the value was less than 50 nM; for `CN(C)c1nc(N[C@H]2CC[C@@H](NC(=O)c3cccc([N+](=O)[O-])c3)CC2)nc2c1CCCC2` [Example 3112, N-[cis-4-(4-Dimethylamino-5,6,7,8-tetrahydro-quinazolin-2-ylamino)-cyclohexyl]-3-nitro-benzamide hydrochloride], less than 50 nM. With `CN(C)c1nc(N[C@H]2CC[C@@H](CNC(=O)c3cccnc3Oc3ccccc3)CC2)nc2c1CCCC2` [Example 3113, N-[cis-4-(4-Dimethylamino-5,6,7,8-tetrahydro-quinazolin-2-ylamino)-cyclohexylmethyl]-2-phenoxy-nicotinamide hydrochloride] the figure was more than 200 nM. With `CN(C)c1cc(N[C@H]2CC[C@@H](NC(=O)c3cccnc3Oc3ccccc3)CC2)nc2ccccc12` [Example 3114, N-[cis-4-(4-Dimethylamino-quinolin-2-ylamino)-cyclohexyl]-2-phenoxy-nicotinamide hydrochloride], the IC50 is less than 50 nM. For `O=C(N[C@H]1CC[C@@H](Nc2cc(Cl)c3ccccc3n2)CC1)c1cccnc1Oc1ccccc1` [Example 3115, N-[cis-4-(4-Chloro-quinolin-2-ylamino)-cyclohexyl]-2-phenoxy-nicotinamide hydrochloride] the value was less than 50 nM; for `COc1cc(N[C@H]2CC[C@@H](NC(=O)c3ccc(F)c(F)c3)CC2)nc2ccccc12` [Example 3116, 3,4-Difluoro-N-[cis-4-(4-methoxy-quinolin-2-ylamino)-cyclohexyl]-benzamide hydrochloride], more than 200 nM. With `O=C(N[C@H]1CC[C@@H](Nc2cc(Cl)c3ccccc3n2)CC1)c1ccc(F)c(F)c1` [Example 3117, N-[cis-4-(4-Chloro-quinolin-2-ylamino)-cyclohexyl]-3,4-difluoro-benzamide hydrochloride] the figure was less than 50 nM; with `CN(C)c1cc(N[C@H]2CC[C@@H](CNC(=O)c3cccnc3Oc3ccccc3)CC2)nc2ccccc12` [Example 3118, N-[cis-4-(4-Dimethylamino-quinolin-2-ylamino)-cyclohexylmethyl]-2-phenoxy-nicotinamide hydrochloride], more than 200 nM. For `Cc1cnc(N[C@H]2CC[C@@H](NC(=O)c3ccc(F)c(F)c3)CC2)nc1N(C)C` [Example 3119, N-[cis-4-(4-Dimethylamino-5-methyl-pyrimidin-2-ylamino)-cyclohexyl]-3,4-difluoro-benzamide hydrochloride] the value was less than 50 nM; for `Cc1cnc(N[C@H]2CC[C@@H](NC(=O)c3cccnc3Oc3ccccc3)CC2)nc1N(C)C` [Example 3120, N-[cis-4-(4-Dimethylamino-5-methyl-pyrimidin-2-ylamino)-cyclohexyl]-2-phenoxy-nicotinamide hydrochloride], less than 50 nM.

On to `Cc1cccc(C(=O)N[C@H]2CC[C@@H](Nc3ncc(C)c(N(C)C)n3)CC2)c1` [Example 3121, N-[cis-4-(4-Dimethylamino-5-methyl-pyrimidin-2-ylamino)-cyclohexyl]-3-methyl-benzamide hydrochloride], for which the IC50 was less than 50 nM. With `COc1cccc(C(=O)N[C@H]2CC[C@@H](Nc3ncc(C)c(N(C)C)n3)CC2)c1` [Example 3122, N-[cis-4-(4-Dimethylamino-5-methyl-pyrimidin-2-ylamino)-cyclohexyl]-3-methoxy-benzamide hydrochloride] the figure was less than 50 nM; with `Cc1cnc(N[C@H]2CC[C@@H](NC(=O)c3cccnc3Oc3ccc(F)cc3)CC2)nc1N(C)C` [Example 3123, N-[cis-4-(4-Dimethylamino-5-methyl-pyrimidin-2-ylamino)-cyclohexyl]-2-(4-fluoro-phenoxy)-nicotinamide hydrochloride], less than 50 nM; with `Cc1cnc(N[C@H]2CC[C@@H](NC(=O)c3cccnc3Oc3ccccc3Br)CC2)nc1N(C)C` [Example 3124, 2-(2-Bromo-phenoxy)-N-[cis-4-(4-dimethylamino-5-methyl-pyrimidin-2-ylamino)-cyclohexyl]-nicotinamide hydrochloride], less than 50 nM.

Consider `Cc1cnc(N[C@H]2CC[C@@H](CNC(=O)Nc3cccc(Cl)c3Cl)CC2)nc1N(C)C` [Example 3125, 1-(2,3-Dichloro-phenyl)-3-[cis-4-(4-dimethylamino-5-methyl-pyrimidin-2-ylamino)-cyclohexylmethyl]-urea hydrochloride], for which the IC50 is less than 50 nM. For `Cc1cc(N(C)C)nc(N[C@H]2CC[C@@H](NC(=O)c3cccnc3Oc3ccccc3)CC2)n1` [Example 3126, N-[cis-4-(4-Dimethylamino-6-methyl-pyrimidin-2-ylamino)-cyclohexyl]-2-phenoxy-nicotinamide hydrochloride] the value was less than 50 nM; for `Cc1cc(N(C)C)nc(N[C@H]2CC[C@@H](NC(=O)c3ccc(F)c(F)c3)CC2)n1` [Example 3127, N-[cis-4-(4-dimethylamino-C-methyl-pyrimidin-2-ylamino)-cyclohexyl]-3,4-difluoro-benzamide hydrochloride], less than 50 nM. With `Cc1cc(N(C)C)nc(N[C@H]2CC[C@@H](NC(=O)c3cccc(Cl)c3)CC2)n1` [Example 3128, 3-Chloro-N-[cis-4-(4-dimethylamino-6-methyl-pyrimidin-2-ylamino)-cyclohexyl]-benzamide hydrochloride] the figure was less than 50 nM; with `CN(C)c1ccnc(N[C@H]2CC[C@@H](NC(=O)c3cccnc3Oc3ccccc3)CC2)n1` [Example 3129, N-[cis-4-(4-Dimethylamino-pyrimidin-2-ylamino)-cyclohexyl]-2-phenoxy-nicotinamide hydrochloride], 50 to 200 nM; with `O=C(N[C@H]1CC[C@@H](Nc2nccc(C(F)(F)F)n2)CC1)c1ccc(F)c(F)c1` [Example 3130, 3,4-Difluoro-N-[cis-4-(4-trifluoromethyl-pyrimidin-2-yl)amino-cyclohexyl]-benzamide hydrochloride], more than 200 nM.

Regarding `COc1ccnc(N[C@H]2CC[C@@H](NC(=O)c3ccc(F)c(F)c3)CC2)n1` [Example 3131, 3,4-Difluoro-N-[cis-4-(4-methoxy-pyrimidin-2-ylamino)-cyclohexyl]-benzamide hydrochloride], the IC50 was more than 200 nM.
